Test results from patent US12577217B2, “15-PGDH inhibitor” (KYORIN Pharmaceutical Co., Ltd., priority 2019, dated 2026).
pIC50: −log10 of the molar value.

Target: T1, recombinant human 15-PGDH (Homo sapiens, UniProt P15428)
T1 construct: purchased R&D Systems
T1 sequence (P15428 1-266): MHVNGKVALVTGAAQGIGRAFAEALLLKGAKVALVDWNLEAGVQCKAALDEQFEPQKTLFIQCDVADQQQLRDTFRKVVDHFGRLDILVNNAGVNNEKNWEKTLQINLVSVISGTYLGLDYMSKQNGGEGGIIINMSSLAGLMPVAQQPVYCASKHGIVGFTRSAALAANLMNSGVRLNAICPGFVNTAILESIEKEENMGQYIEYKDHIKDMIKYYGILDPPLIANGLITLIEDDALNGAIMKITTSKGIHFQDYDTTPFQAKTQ
Assay: 15-PGDH enzyme inhibition test
Type: biochemical
Conditions: 4 nM recombinant human 15-PGDH, 30 μM PGE2, 1 mM NAD+, 60 minutes after starting the reaction; read-out: IC50 Value
Summary of the method: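 Fluorescence (excitation 340 nm, emission 440 nm) measured 60 min after adding 1 mM NAD+ and 30 μM PGE2 to 4 nM recombinant human 15-PGDH, which had stood 12 min at room temperature with compound in pH 8.0 Tris-HCl buffer. Concentration-response curves yield IC50, binned into potency categories.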

Row | SMILES | pIC50
1 | O=C(O)c1ccc(N2CCOc3cc(C(=O)N4CCC[C@@H](F)C4)cnc32)cc1 [Example 4-7] | > 8.00
2 | COC(=O)c1cc2ccc(N3CCOc4cc(C(=O)N5CCCCC5)cnc43)cc2n1C [Example 1-92] | > 8.00
3 | CCOCCN1Cc2cc(N3CCOc4cc(C(=O)N5CCC(F)(F)CC5)cnc43)ncc2C1=O [Example 1-51] | 7.00 to 8.00
4 | Cn1nc2cc(N3CCCOc4cc(C(=O)N5CCC[C@@H](F)C5)cnc43)ccn2c1=O [Example 8-62] | > 8.00
5 | O=C(O)c1ccc(N2CCOc3cc(C(=O)N4CCCC(F)(F)C4)cnc32)cc1 [Example 4-6] | > 8.00
6 | COCn1nc2cc(N3CCOc4cc(C(=O)N5CCCCC5)cnc43)ccn2c1=O [Example 1-22] | > 8.00
7 | O=C(c1cnc2c(c1)CCCN2c1cnc2c(=O)[nH]cnc2c1)N1CCC(F)(F)CC1 [Example 1-192] | > 8.00
8 | NC(=O)Cn1nc2cc(N3CCOc4cc(C(=O)N5CCCCC5)cnc43)ccn2c1=O [Example 6-6] | > 8.00
9 | Cn1nc2cc(N3CCOCc4cc(C(=O)N5CCCCC5)cnc43)ccn2c1=O [Example 1-108] | 7.00 to 8.00
10 | O=C(c1cnc2c(c1)OCCN2c1ccn2c(=O)n(CC3COC3)nc2c1)N1CCCCC1 [Example 1-36] | > 8.00
11 | O=C(c1cnc2c(c1)OCCN2c1ccncc1)N1CCCCC1 [Example 1-233] | 7.00 to 8.00
12 | CC1CCN(C(=O)c2cnc3c(c2)CCCN3c2ccn3c(=O)n(C)nc3c2)CC1 [Example 8-136] | > 8.00
13 | COC(=O)C(C)(C)c1ccc(N2CCOc3cc(C(=O)N4CCCCC4)cnc32)cc1 [Example 1-247] | < 7.00
14 | CCn1nc2cc(N3CCCc4cc(C(=O)N5CCC[C@@H](CF)C5)cnc43)ccn2c1=O [Example 1-120] | > 8.00
15 | O=C(c1cnc2c(c1)CCCN2c1ccc(F)cc1)N1CCCCC1 [Example 1-214] | 7.00 to 8.00
16 | Cn1ccc2cc(N3CCOc4cc(C(=O)N5CCCCC5)cnc43)ccc2c1=O [Example 1-217] | > 8.00
17 | Cn1nc2cc(N3CCN(c4ccccc4)c4cc(C(=O)N5CCC(F)(F)CC5)cnc43)ccn2c1=O [Example 30-1, 7-(7-(4,4-Difluoropiperidine-1-carbonyl)-1-phenyl-2,3-dihydropyrido[2,3-b]pyrazin-4(1H)-yl)-2-methyl-[1,2,4]triazolo[4,3-a]pyridin-3 (2H)-one] | 7.00 to 8.00
18 | CCN1Cc2cc(N3CCCc4cc(C(=O)N5CCC(F)(F)C(C)C5)cnc43)ccc2C1=O (stereo not drawn) [Example 8-82] | > 8.00
19 | Cn1nc2cc(N3CCCc4cc(C(=O)N5CCC[C@H](C(F)F)C5)cnc43)ccn2c1=O [Example 8-143] | > 8.00
20 | O=C(c1cnc2c(c1)OCCN2c1ccc2c(c1)CN(CO)C2=O)N1CCC(F)(F)CC1 [Example 25-1, 5-(7-(4,4-Difluoropiperidine-1-carbonyl)-2,3-dihydro-4H-pyrido[3,2-b]oxazin-4-yl)-2-(hydroxymethyl)isoindolin-1-one] | > 8.00
21 | O=C(O)c1ccccc1N1CCc2cc(C(=O)N3CCCCC3)ccc21 [Example 2-28] | < 7.00
22 | COCN1Cc2cc(N3CCCc4cc(C(=O)N5CCCCC5)cnc43)ccc2C1=O [Example 1-172] | > 8.00
23 | O=C(c1cnc2c(c1)OCCN2c1ccc2c(c1)CN(C1CC1)C2=O)N1CCC(F)(F)CC1 [Example 1-227] | > 8.00
24 | COCCn1nc2cc(N3CCCc4cc(C(=O)N5CCC[C@@H](CF)C5)cnc43)ccn2c1=O [Example 1-123] | > 8.00
25 | Cn1nc2cc(N3CCOc4cc(C(=O)C5CCC(F)(F)CC5)cnc43)ccn2c1=O [Example 1-132] | > 8.00
26 | CC(=O)N1CCN(C(=O)c2cnc3c(c2)CCCN3c2ccn3c(=O)n(C)nc3c2)CC1 [Example 8-128] | < 7.00
27 | Cn1nc2cc(N3CCSc4cc(C(=O)N5CCCCC5)ccc43)ccn2c1=O [Example 1-97] | > 8.00
